Test results published in patent publication US20200085050A1, “Acyclic Picolinamides as a Seed Treatment” (priority 2017, published 2020).
Where two headings read alike, the source gives them in different places.

What was measured:
[1] = test system: Rhizoctonia solani; assay: Seed treatment, rice sheath blight (RHIZSO) foliar disease control; format: in vivo
[2] = test system: Blumeria graminis f. sp. tritici; assay: Seed treatment, wheat powdery mildew (ERYSGT) foliar disease control; format: in vivo
[3] = in vivo
Text: The treated seeds were planted in pots containing soil-less Metro mix within 2 weeks after treatment, and resultant seedling plants were inoculated with respective pathogens as described below. Four pots of the seedlings were inoculated for each treatment rate.

[4] = test system: Parastagonospora nodorum; assay: Seed treatment, wheat glume blotch (LEPTNO) foliar disease control; format: in vivo
[5] = test system: Cochliobolus sativus; assay: Seed treatment, spot blotch of barley (COCHSA) foliar disease control; format: in vivo
[6] = test system: Phakopsora pachyrhizi; assay: Seed treatment, soybean rust (PHAKPA) foliar disease control; format: in vivo; settings: at any rate, data not shown
[7] = test system: Colletotrichum lagenarium; assay: Seed treatment, cucumber anthracnose (COLLLA) foliar disease control; format: in vivo
[8] = test system: Pyricularia oryzae; format: in vivo; settings: for PYRIOR rating of foliar disease control: rice
[9] = test system: Pseudoperonospora cubensis; assay: Seed treatment, cucumber downy mildew (PSEUCU) foliar disease control; format: in vivo
[10] = test system: Rhynchosporium secalis; assay: Seed treatment, barley scald (RHYNSE) foliar disease control; format: in vivo
[11] = test system: Puccinia triticina; assay: Seed treatment, wheat brown rust (PUCCRT) foliar disease control; format: in vivo
[12] = test system: Blumeria graminis f. sp. hordei; assay: Seed treatment, barley powdery mildew (ERYSGH) foliar disease control; format: in vivo
[13] = test system: Erysiphe cichoracearum; assay: Seed treatment, cucumber powdery mildew (ERYSCI) foliar disease control; format: in vivo
[14] = test system: Zymoseptoria tritici; assay: Seed treatment, wheat leaf blotch (SEPTTR) foliar disease control; format: in vivo
[15] = seed treatment 3.7 g ai/100 kg seeds
[16] = seed treatment 11 g ai/100 kg seeds
[17] = seed treatment 33.3 g ai/100 kg seeds
[18] = seed treatment 100 g ai/100 kg seeds
[19] = seed treatment 300 g ai/100 kg seeds
[20] = seed treatment, summary of Table 5
[21] = seed treatment, summary of Table 2
[22] = seed treatment, summary of Table 3
[23] = seed treatment, summary of Table 4

With `COc1ccnc(C(=O)N[C@@H](C)C(=O)O[C@@H](C)C(c2ccc(F)cc2)c2ccc(F)cc2)c1OC(C)=O` [I, (S)-1,1-bis(4-fluorophenyl)propan-2-yl (3-acetoxy-4-methoxypicolinoyl)-L-alaninate] as the compound, how does the “RHIZSO rating of foliar disease control” value [1, 15] read?
The value was “D (0-25)”.

What about the “RHIZSO rating of foliar disease control” value [1, 16] of the same compound?
Its value is “D (0-25)”.

What about the “RHIZSO rating of foliar disease control” value [1, 17] of the same compound?
Its value is “D (0-25)”.

And the “RHIZSO rating of foliar disease control” value [1, 18]?
The value was “D (0-25)”.

And the “RHIZSO rating of foliar disease control” value [1, 19]?
Its value is “D (0-25)”.

And the “activity on rice sheath blight (RHIZSO), in words” value [1, 20]?
Its value is “little activity”.

What about the “ERYSGT rating of foliar disease control” value [2, 15] of the same compound?
The value was “D (0-25)”.

What about the “ERYSGT rating of foliar disease control” value [2, 16] of the same compound?
The value was “D (0-25)”.

What about the “ERYSGT rating of foliar disease control” value [2, 17] of the same compound?
Its value is “B (51-75)”.

And the “ERYSGT rating of foliar disease control” value [2, 18]?
The value was “A (76-100)”.

And the “ERYSGT rating of foliar disease control” value [2, 19]?
Its value is “A (76-100)”.

And the “activity against powdery mildew (ERYSGT), in words” value [2, 21]?
Its value is “moderate activity”.

And the stunting or phytotoxicity [3]?
Its stunting or phytotoxicity is “no evidence of stunting or phytotoxicity”.

And the “LEPTNO rating of foliar disease control” value [4, 15]?
Its value is “A (76-100)”.

What about the “LEPTNO rating of foliar disease control” value [4, 16] of the same compound?
Its value is “A (76-100)”.

And the “LEPTNO rating of foliar disease control” value [4, 17]?
Its value is “A (76-100)”.

And the “LEPTNO rating of foliar disease control” value [4, 18]?
Its value is “A (76-100)”.

And the “LEPTNO rating of foliar disease control” value [4, 19]?
Its value is “A (76-100)”.

What about the “protection against glume blotch (LEPTNO), in words” value [4, 21] of the same compound?
The value was “excellent protection”.

What about the “COCHSA rating of foliar disease control” value [5, 15] of the same compound?
Its value is “D (0-25)”.

And the “COCHSA rating of foliar disease control” value [5, 16]?
The value was “D (0-25)”.

And the “COCHSA rating of foliar disease control” value [5, 17]?
Its value is “D (0-25)”.

And the “COCHSA rating of foliar disease control” value [5, 18]?
The value was “D (0-25)”.

What about the “COCHSA rating of foliar disease control” value [5, 19] of the same compound?
Its value is “D (0-25)”.

What about the “activity on spot blotch (COCHSA), in words” value [5, 22] of the same compound?
Its value is “little activity”.

And the “activity on Asian soybean rust (PHAKPA), in words” value [6]?
The value was “no activity”.

What about the “COLLLA rating of foliar disease control” value [7, 15] of the same compound?
Its value is “D (0-25)”.

And the “COLLLA rating of foliar disease control” value [7, 16]?
The value was “B (51-75)”.

And the “COLLLA rating of foliar disease control” value [7, 17]?
The value was “B (51-75)”.

What about the “COLLLA rating of foliar disease control” value [7, 18] of the same compound?
Its value is “A (76-100)”.

What about the “COLLLA rating of foliar disease control” value [7, 19] of the same compound?
Its value is “A (76-100)”.

And the “activity on anthracnose (COLLLA), in words” value [7, 23]?
The value was “strong activity”.

And the “PYRIOR rating of foliar disease control” value [8, 15]?
The value was “B (51-75)”.

And the “PYRIOR rating of foliar disease control” value [8, 16]?
Its value is “B (51-75)”.

And the “PYRIOR rating of foliar disease control” value [8, 17]?
The value was “A (76-100)”.

What about the “PYRIOR rating of foliar disease control” value [8, 18] of the same compound?
The value was “A (76-100)”.

What about the “PYRIOR rating of foliar disease control” value [8, 19] of the same compound?
The value was “A (76-100)”.

And the “activity on rice blast (PYRIOR), in words” value [8, 20]?
The value was “strong activity”.

What about the “PSEUCU rating of foliar disease control” value [9, 15] of the same compound?
The value was “D (0-25)”.

What about the “PSEUCU rating of foliar disease control” value [9, 16] of the same compound?
The value was “D (0-25)”.

And the “PSEUCU rating of foliar disease control” value [9, 17]?
The value was “D (0-25)”.

What about the “PSEUCU rating of foliar disease control” value [9, 18] of the same compound?
The value was “D (0-25)”.

And the “PSEUCU rating of foliar disease control” value [9, 19]?
Its value is “D (0-25)”.

What about the “activity on downy mildew (PSEUCU), in words” value [9, 23] of the same compound?
Its value is “little activity”.

And the “RHYNSE rating of foliar disease control” value [10, 15]?
The value was “D (0-25)”.

And the “RHYNSE rating of foliar disease control” value [10, 16]?
Its value is “D (0-25)”.

What about the “RHYNSE rating of foliar disease control” value [10, 17] of the same compound?
The value was “C (26-50)”.

And the “RHYNSE rating of foliar disease control” value [10, 18]?
The value was “B (51-75)”.

What about the “RHYNSE rating of foliar disease control” value [10, 19] of the same compound?
The value was “A (76-100)”.

What about the “activity on barley scald (RHYNSE), in words” value [10, 22] of the same compound?
Its value is “moderate activity”.

What about the “PUCCRT rating of foliar disease control” value [11, 15] of the same compound?
Its value is “D (0-25)”.

And the “PUCCRT rating of foliar disease control” value [11, 16]?
The value was “D (0-25)”.

What about the “PUCCRT rating of foliar disease control” value [11, 17] of the same compound?
The value was “D (0-25)”.

What about the “PUCCRT rating of foliar disease control” value [11, 18] of the same compound?
The value was “C (26-50)”.

What about the “PUCCRT rating of foliar disease control” value [11, 19] of the same compound?
The value was “A (76-100)”.

What about the “activity against brown rust (PUCCRT), in words” value [11, 21] of the same compound?
The value was “moderate activity”.

And the “ERYSGH rating of foliar disease control” value [12, 15]?
The value was “D (0-25)”.

What about the “ERYSGH rating of foliar disease control” value [12, 16] of the same compound?
The value was “A (76-100)”.

And the “ERYSGH rating of foliar disease control” value [12, 17]?
The value was “A (76-100)”.

And the “ERYSGH rating of foliar disease control” value [12, 18]?
The value was “A (76-100)”.

And the “ERYSGH rating of foliar disease control” value [12, 19]?
The value was “A (76-100)”.

And the “activity on powdery mildew (ERYSGH), in words” value [12, 22]?
The value was “excellent activity”.

And the “ERYSCI rating of foliar disease control” value [13, 15]?
Its value is “D (0-25)”.

What about the “ERYSCI rating of foliar disease control” value [13, 16] of the same compound?
Its value is “D (0-25)”.

And the “ERYSCI rating of foliar disease control” value [13, 17]?
The value was “D (0-25)”.

And the “ERYSCI rating of foliar disease control” value [13, 18]?
Its value is “B (51-75)”.

What about the “ERYSCI rating of foliar disease control” value [13, 19] of the same compound?
The value was “A (76-100)”.

And the “activity on powdery mildew (ERYSCI), in words” value [13, 23]?
Its value is “moderate activity”.

And the “SEPTTR rating of foliar disease control” value [14, 15]?
The value was “A (76-100)”.

And the “SEPTTR rating of foliar disease control” value [14, 16]?
Its value is “A (76-100)”.

And the “SEPTTR rating of foliar disease control” value [14, 17]?
Its value is “A (76-100)”.

And the “SEPTTR rating of foliar disease control” value [14, 18]?
The value was “A (76-100)”.

And the “SEPTTR rating of foliar disease control” value [14, 19]?
Its value is “A (76-100)”.

What about the “protection against leaf blotch (SEPTTR), in words” value [14, 21] of the same compound?
The value was “excellent protection”.
